Consider 8 compounds from ChEMBL document CHEMBL1201862, “PubChem BioAssay data set” (2004).

Test in all cases: inhibition of tumour cell growth, NCI panel, 48 h
For test [1], the system named is U-251.
The subject of test [2] is HT-29.
Test [3] has as its system 786-0.
Test [4] has as its system KM-20L2.
The subject of test [5] is HL-60.
Test [6] has as its system RPMI-8226.
For test [7], the system named is HCC 2998.
Test [8] concerns SNB-75.
Test [9] deals with DMS-273.
Test [10] has as its system EKVX.
Test [11] deals with DLD-1.
Test [12] concerns CAKI-1.
Test [13] has as its system OVCAR-4.
In test [14] the test system is OVCAR-3.
Test [15] deals with Malme-3M.
For test [16], the system named is UACC-257.
For test [17], the system named is SK-MEL-5.
In test [18] the test system is M14.
For test [19], the system named is MDA-MB-231.
Test [20] concerns Hs-578T.

SMILES strings stand for the structures.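 Values below derive from 48-hour exposures of cells grown in 96-well plates, with endpoints linearly interpolated between the two concentrations bracketing the appropriate inhibition level. GI50 is the concentration that inhibits growth by half.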 Active and inactive are the calls of the source. Cut-off read from the data, not from the text of the source: active = GI50 up to about 1.1 µM and inactive = higher. A value given as a limit tells only on which side of the number the result lay.

Take `NC(=O)COC(=O)c1c(Cl)nc2sccn12`: the GI50 in [1] is > 83 µM (inactive); in test [2] it was > 100 µM (inactive); in [3], 19.1 µM (inactive); in [4], > 100 µM (inactive); in test [5] it was > 46 µM (inactive); in test [6] it was > 37 µM (inactive). For the same compound, the GI50 in test [7] was > 100 µM (inactive); in test [8] it was > 100 µM (inactive); in test [9], 81.7 µM (inactive); in [10] it was > 100 µM (inactive); in test [11], > 100 µM (inactive); in test [12], > 100 µM (inactive). The GI50 was > 100 µM (inactive) in test [13]; > 43.7 µM (inactive) in [14]; > 100 µM (inactive) in [15]; > 100 µM (inactive) in test [16]; > 100 µM (inactive) in [17]; > 100 µM (inactive) in [18].

Regarding `Cc1cc2c(=O)cc(-c3ccc(C(=O)O)cc3)oc2c(C(=O)O)c1C`, the GI50 in [1], in [2], in test [3], in test [4], in [5] and in test [6] was > 100 µM (inactive) each time. For the same compound, the GI50 in [7], in test [8], in test [9], in test [10], in test [11] and in test [12] was > 100 µM (inactive) each time. In addition, the GI50 in test [13], in test [14], in test [15], in test [16], in test [17] and in test [18] was > 100 µM (inactive) throughout.

`COC1C(O)C(C)OC(OC2C(Oc3cccc4c(O)c5c(=O)oc6ccc(C)c7c(=O)oc(c34)c5c67)OC(C)C3O[C@H](c4ccccc4)OC32)C1O` (stereo partly specified): the GI50 in [1] was 0.196 µM (active); in test [19], 0.845 µM (active); in [2] it was 0.0877 µM (active); in test [3] it was 0.0521 µM (active); in test [4] it was 0.055 µM (active); in test [5], 0.098 µM (active). Also, the GI50 is 0.0796 µM (active) in test [6]; 0.453 µM (active) in test [7]; 0.583 µM (active) in test [8]; 0.0206 µM (active) in test [9]; 1.24 µM (inactive) in test [10]; 0.531 µM (active) in test [20]. For the same compound, the GI50 in test [11] is 0.0456 µM (active); in [12], 0.207 µM (active); in [13], 1.3 µM (inactive); in [14], 0.195 µM (active); in test [15] it was 0.845 µM (active); in test [17], 0.131 µM (active). Moreover, in [18], the GI50 is 0.851 µM (active).

With `COc1ccc2oc3cccc(NCCN(C)C)c3c(=O)c2c1`, the GI50 in test [1] was 12.7 µM (inactive); in test [2] it was 7.83 µM (inactive); in test [3], 10.9 µM (inactive); in test [4], 9.14 µM (inactive); in [5], 9.68 µM (inactive); in [6] it was 12.6 µM (inactive). The GI50 in test [7] was 8.65 µM (inactive); in [8], 15.3 µM (inactive); in [9] it was 12.1 µM (inactive); in test [10], 15 µM (inactive); in [11], 13.1 µM (inactive); in [12], 4.69 µM (inactive). For the same compound, the GI50 is 12.7 µM (inactive) in [13]; 14.7 µM (inactive) in [14]; 15.6 µM (inactive) in test [15]; 16.3 µM (inactive) in test [16]; 16.7 µM (inactive) in test [17]; 15.8 µM (inactive) in test [18].

As to `COC(=O)C(C(=O)C(=O)Nc1ccc(Br)cc1)c1nc2ccc(Cl)cc2nc1O` (stereo unspecified), the GI50 was > 100 µM (inactive) in [1]; > 48 µM (inactive) in test [2]; > 100 µM (inactive) in test [3]; > 100 µM (inactive) in [4]; > 83.2 µM (inactive) in test [5]; > 100 µM (inactive) in [6]. In addition, the GI50 is > 100 µM (inactive) in test [7]; 81.7 µM (inactive) in [8]; > 70.6 µM (inactive) in test [9]; > 100 µM (inactive) in [10]; > 100 µM (inactive) in test [11]; > 100 µM (inactive) in test [12]. The GI50 in test [13] was > 34.5 µM (inactive); in test [14] it was > 100 µM (inactive); in test [15] it was > 100 µM (inactive); in [16], > 100 µM (inactive); in [17], > 100 µM (inactive); in [18], > 100 µM (inactive).

In the case of `O=C(O)/C(Cl)=C(\Cl)C(=O)Nc1ccc(Cl)c(Cl)c1Cl`, the GI50 is 19.5 µM (inactive) in test [1]; 20.3 µM (inactive) in test [2]; 18.2 µM (inactive) in test [3]; 23.2 µM (inactive) in test [4]; 21.4 µM (inactive) in [5]; 28.9 µM (inactive) in [6]. In addition, the GI50 was 18.9 µM (inactive) in test [7]; 18.8 µM (inactive) in test [8]; 21 µM (inactive) in test [9]; 22.6 µM (inactive) in test [10]; 24.5 µM (inactive) in test [11]; 18.1 µM (inactive) in [12]. Also, the GI50 is 19.4 µM (inactive) in test [13]; 19 µM (inactive) in test [14]; 19.3 µM (inactive) in test [15]; 18.5 µM (inactive) in [16]; 29.4 µM (inactive) in [17]; 18.2 µM (inactive) in [18].

Regarding `OCCCCCCOc1ccc(-c2cc(-c3ccccn3)nc(-c3ccccn3)c2)cc1`, the GI50 in [1] was 0.0877 µM (active); in [2] it was 0.228 µM (active); in test [3], 0.0944 µM (active); in [4], 0.0897 µM (active); in test [5] it was 0.0853 µM (active); in [6] it was 0.134 µM (active). The GI50 was 0.187 µM (active) in [7]; 0.637 µM (active) in test [8]; 0.211 µM (active) in test [9]; 0.18 µM (active) in [10]; 0.419 µM (active) in test [20]; 0.169 µM (active) in test [11]. The GI50 in test [12] is 0.256 µM (active); in test [13], 0.177 µM (active); in [14], 0.22 µM (active); in test [15] it was 0.404 µM (active); in test [16], 0.397 µM (active); in [17], 0.243 µM (active). Further, the GI50 in test [18] is 0.202 µM (active).

As for `O=c1[nH]ccc(CNC23CC4CC(CC(C4)C2)C3)c1O`, the GI50 was > 100 µM (inactive) in test [1]; > 100 µM (inactive) in [2]; > 100 µM (inactive) in [3]; > 100 µM (inactive) in [4]; 41.3 µM (inactive) in test [5]; > 100 µM (inactive) in test [6]. The GI50 was > 100 µM (inactive) in test [7]; > 100 µM (inactive) in test [8]; > 100 µM (inactive) in test [9]; 80.4 µM (inactive) in [10]; > 100 µM (inactive) in test [11]; 59.7 µM (inactive) in test [12]. Also, the GI50 in test [13], in test [14], in test [15], in test [16], in test [17] and in [18] was > 100 µM (inactive) throughout.
